Data set [1] has as its target T1, recombinant NR1/NR2B receptors (Rattus norvegicus, UniProt P35439+Q00960).
T1 construct: expressed in transfected cells; host or cells: HEK293 cells (ATCC CRL1573)
As to the kind of experiment: Patch-clamp, inhibition of glutamate responses of recombinant NMDA receptors in transfected HEK293 cells. Particulars: for IC50: calculated from relative inhibition with Hill's coefficient 1.2; for Relative inhibition effect (%): responses to 1 mM glutamate, -60 mV, HEK293 NR1-1a/NR2B, steroid 50, 100 or 200 μM. Format: cell-based.

The target of data set [2] is T1, recombinant NR1/NR2B receptors. Particulars: 100 μM pregnanolone sulphate, recombinant NR1/NR2B receptors (Petrovic et al., 2005); listed as preganolone sulphate; cited from earlier work.
For data set [3], the system named is NMDA receptor on hippocampal neurons. Particulars: 100 μM pregnanolone sulphate, responses to 100 μM NMDA, hippocampal neurons (Petrovic et al., 2005); cited from earlier work.
A further data set has as its system C6 glioma cell line. As to the kind of experiment: Growth of glioma cells in culture. The class given is cell-based. Particulars: 0.1 and 1 μg in 50 ml β-cyclodextrine solution, 3 div + 6 days. The procedure: The effect of compound from the example 9 (the model molecule) on growth of glioma cells was studied on C6 glioma cell line (ATTC, Rockville). The model molecule was tested at doses of 0.1 and 1 μg dissolved in 50 ml of β-cyclodextrine solution. Parallel control groups were administered by cholesterol at doses of 0.1 and 1 μg dissolved in 50 ml of β-cyclodextrine solution. The last group included in the experiment was left intact without any application.
The cells were cultivated in vitro for 3 days (div). Afterwards tested molecule was applied and the cell culture was studied for additional 6 days. Olympus microscope with phase contrast and 200× magnification was used for the cell monitoring.

Data set [4] relates to rats. As to the kind of experiment: Active allothetic place avoidance (AAPA) task, compound applied alone. The class given is in vivo, rat. The procedure:
The effect of compound from Example 9 on cognitive behaviors and locomotion was assessed using active allothetic place avoidance (AAPA) task, which requires intact hippocampi and ability of animals to navigate in space using distinct reference frames (spatial navigation and “cognitive coordination”) (Wesierska et al., 2005) and it also allows measuring changes in the accompanying locomotor activity. AAPA task training involves animals trained to move over a slowly rotating uniform circular arena, on which a prohibited sector is defined, entering which is punished by a mild footshock. A shock sector and its position can be determined solely by its relationship to distal orienting cues in the room (Stuchlik et al., 2008).
This task is highly dependent upon hippocampal formation, with unilateral reversible ablation of this structure with TTX leading to avoidance deficit (Cimadevilla et al., 2001). Animals solving this task should walk in a direction opposite to arena rotation; otherwise it would be repeatedly brought to a fixed sector by arena rotation. We conducted 4 acquisition session of AAPA task, during which the sector location was always reinforced and remained stable throughout the training. Each session lasted 20 min.
Control animals obtained saline intraperitoneally (i.p.) whilst experimental groups received subcutaneous (s.c.) injections of the compound from Example 9 at doses 1 mg/kg and 10 mg/kg (dissolved in cyclodextrin). Solution of compound from Example 9 (1 mg/2 ml or 10 mg/2 ml in cyclodextrin) was applied s.c. at a volume 2 ml/kg of body weight (b.w.). Intraperitonal application of dizocilpine (a non-competitive NMDA receptor antagonist; showing significant neuroprotective activity but exerting cognition-disturbing and psychotomimetic effects) was used as a positive control. Dizocilpine was applied at doses 0.1 mg/kg, 0.2 mg/kg and 0.3 mg/kg. It is worth noting that dizocilpine (albeit its experimental neuroprotective activity) is often used to model schizophrenia-like behaviors in […] and it has been repeatedly shown to exert a dose-dependent learning deficit and hyperlocomotion.

Data set [5] concerns rats. As to the kind of experiment: Open-field locomotion in MK-801 animal model of schizophrenia. Format: in vivo, rat. Particulars: substance alone; Example 9 0.1 and 1 mg/kg, MK-801 0.1 mg/kg. The procedure:
The effect of the compound from example 9 in doses of 0.1 mg/kg and 1 mg/kg on locomotor activity in open field test was evaluated. Locomotor activity expressed as a total distance travelled during 30 min exploration of a box (68×68×30 cm) located in a sound proof room was measured using a video tracking system for automation of the behavioural experiments (Noldus, EthoVision, Version 2.1.).

Setting [6] is: Example 9 1 and 10 mg/kg s.c., dizocilpine 0.1-0.3 mg/kg i.p.

T1 sequence (Q00960 27-1482, other chains not shown): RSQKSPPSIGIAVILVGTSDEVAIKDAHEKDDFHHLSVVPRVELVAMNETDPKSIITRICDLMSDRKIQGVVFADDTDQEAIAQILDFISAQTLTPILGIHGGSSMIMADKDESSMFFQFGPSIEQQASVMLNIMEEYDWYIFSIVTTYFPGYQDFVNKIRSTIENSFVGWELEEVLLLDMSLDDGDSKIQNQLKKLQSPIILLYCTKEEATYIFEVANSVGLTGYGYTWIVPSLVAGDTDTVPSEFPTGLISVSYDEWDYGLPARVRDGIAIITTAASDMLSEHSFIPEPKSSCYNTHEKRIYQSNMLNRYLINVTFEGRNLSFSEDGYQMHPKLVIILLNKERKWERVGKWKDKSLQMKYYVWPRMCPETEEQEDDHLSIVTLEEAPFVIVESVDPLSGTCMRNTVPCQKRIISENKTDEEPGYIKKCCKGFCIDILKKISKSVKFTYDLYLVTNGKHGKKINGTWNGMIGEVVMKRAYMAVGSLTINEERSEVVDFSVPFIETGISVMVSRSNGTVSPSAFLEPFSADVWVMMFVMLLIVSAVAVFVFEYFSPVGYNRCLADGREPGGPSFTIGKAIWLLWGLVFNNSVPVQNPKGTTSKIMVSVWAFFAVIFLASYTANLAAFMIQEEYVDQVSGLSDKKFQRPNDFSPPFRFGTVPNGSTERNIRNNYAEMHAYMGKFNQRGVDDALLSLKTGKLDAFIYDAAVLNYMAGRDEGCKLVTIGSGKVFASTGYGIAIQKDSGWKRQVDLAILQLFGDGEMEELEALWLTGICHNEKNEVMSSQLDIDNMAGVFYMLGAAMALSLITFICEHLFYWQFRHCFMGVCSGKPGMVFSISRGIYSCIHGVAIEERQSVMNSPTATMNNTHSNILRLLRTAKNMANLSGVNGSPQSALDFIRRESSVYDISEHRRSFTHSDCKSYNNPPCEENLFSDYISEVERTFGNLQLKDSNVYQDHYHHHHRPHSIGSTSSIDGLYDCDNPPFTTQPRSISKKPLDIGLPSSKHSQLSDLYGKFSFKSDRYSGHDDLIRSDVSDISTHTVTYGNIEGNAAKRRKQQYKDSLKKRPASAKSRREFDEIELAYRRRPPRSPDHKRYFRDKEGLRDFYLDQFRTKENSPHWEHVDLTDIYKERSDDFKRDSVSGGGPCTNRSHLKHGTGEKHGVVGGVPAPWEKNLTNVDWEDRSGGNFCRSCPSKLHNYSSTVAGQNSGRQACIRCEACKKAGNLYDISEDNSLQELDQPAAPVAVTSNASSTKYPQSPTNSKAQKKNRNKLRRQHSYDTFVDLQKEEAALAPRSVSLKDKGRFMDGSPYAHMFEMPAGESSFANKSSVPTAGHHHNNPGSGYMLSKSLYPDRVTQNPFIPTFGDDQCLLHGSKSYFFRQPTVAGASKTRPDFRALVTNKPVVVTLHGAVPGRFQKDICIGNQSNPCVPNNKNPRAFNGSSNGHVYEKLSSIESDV

`CC(=O)[C@H]1CC[C@H]2[C@@H]3CC[C@@H]4C[C@H](OC(=O)/C=C\C(=O)O)CC[C@]4(C)[C@H]3CC[C@]12C` [Example 17, 20-Oxo-5β-pregnan-3α-yl (Z)-3-carboxyprop-2-enoate]: in data set [1], the IC50 (commonly the concentration that gives 50% inhibition) was 14 µM and the “Relative inhibition effect (%)” value worked out at 81.6 ± 2.7%.
In the case of “20-oxo-5beta-pregnan-3alpha-yl sulfate [Pregnanolone sulphate]”, the IC50 in data set [1] was 55 µM. Besides, the values for the mean inhibition effect in data set [2] and in data set [3] were 67.2±8.2% and 71.3±5.0%, respectively.
Turning to `CC(C)CCC[C@@H](C)[C@H]1CC[C@H]2[C@@H]3CC=C4C[C@@H](O)CC[C@]4(C)[C@H]3CC[C@]12C` [cholesterol, reference compound], the “effect on growth of glioma cells” value in the data set with C6 glioma cell line is reported as “slightly apparent”.
Take `CC(=O)[C@H]1CC[C@H]2[C@@H]3CC[C@@H]4C[C@H](OC(=O)CCCCC(=O)O)CC[C@]4(C)[C@H]3CC[C@]12C` [Example 13, 20-Oxo-5β-pregnan-3α-yl-adipyl 1-ester]: in data set [1], the IC50 was 40 µM and the “Relative inhibition effect (%)” value is 87.3 ± 8.9%.
Consider `C[C@]12N[C@H](Cc3ccccc31)c1ccccc12` [dizocilpine], for which, in the data set on rats [4] (setting [6]), the “maximum time avoided in AAPA” value was “significantly decreased rats' performance”. In addition, in the data set on rats [4] (setting [6]), the “number of entrances into shock sector in AAPA” value is “dose-dependently disrupted this parameter”. Further, the “total distance traveled in AAPA (locomotor activity)” value in the data set on rats [4] (Example 9 1 and 10 mg/kg s.c., dizocilpine 0.1-0.3 mg/kg i.p., 20-min sessions) was “dose-dependently and consistently stimulated the locomotor activity”. The entries for the “locomotor activity in AAPA” value with rats [4] (dizocilpine 0.1 mg/kg i.p.), in the data set with rats [4] (dizocilpine 0.2 mg/kg i.p.) and with rats [4] (dizocilpine 0.3 mg/kg i.p.) were “hyperlocomotion was not observed”, “marked locomotor hyperactivity” and “even more dramatic hyperlocomotion”, respectively. Besides, the “locomotion in open field (total distance, 30 min)” value in the data set on rats [5] was “hyperlocomotion state induced by MK-801”.
Turning to `CC(=O)[C@H]1CC[C@H]2[C@@H]3CC[C@@H]4C[C@H](OC(=O)CCCCCCC(=O)O)CC[C@]4(C)[C@H]3CC[C@]12C` [Example 15, 20-Oxo-5β-pregnan-3α-yl 7-carboxyheptanoate], in data set [1], the IC50 is 175 µM and the “Relative inhibition effect (%)” value was 54.0 ± 10.8%.
`COC(=O)CN[C@@H]1CC[C@@]2(C)[C@H](CC[C@@H]3[C@@H]2CC[C@]2(C)[C@@H](C(C)=O)CC[C@@H]32)C1.Cl` [Example 26, N-(20-Oxo-5β-pregnan-3α-yl) glycine methylester hydrochloride]: in data set [1], the IC50 is 250 µM and the “Relative inhibition effect (%)” value turned out to be 43.4 ± 3.4%.
Regarding `CC(=O)[C@H]1CC[C@H]2[C@@H]3CC[C@@H]4C[C@H](OC(=O)[C@@H](N)CC(=O)O)CC[C@]4(C)[C@H]3CC[C@]12C` [Example 3, 20-Oxo-5β-pregnan-3α-yl L-aspartyl 1-ester], in data set [1], the half-inhibitory concentration (IC50) was 51 µM and the “Relative inhibition effect (%)” value is reported as 83.6 ± 2.7%.
Consider `CC(=O)[C@H]1CC[C@H]2[C@@H]3CC[C@@H]4C[C@H](OC(=O)CCCCCC(=O)O)CC[C@]4(C)[C@H]3CC[C@]12C` [Example 14, 20-Oxo-5β-pregnan-3α-yl 6-carboxyhexanoate], for which, in data set [1], the IC50 is 135 µM and the “Relative inhibition effect (%)” value stood at 61.5 ± 10.6%.
On to `CC(=O)[C@H]1CC[C@H]2[C@@H]3CC[C@@H]4C[C@H](OC(=O)C(C)CC(=O)O)CC[C@]4(C)[C@H]3CC[C@]12C` (stereo partly drawn) [Example 19, 20-Oxo-5β-pregnan-3α-yl 3-carboxy-ξ-methyl-propanoate], for which, in data set [1], the IC50 is 30 µM and the “Relative inhibition effect (%)” value is 80.9 ± 3.6%.

The values are drawn from US8575376B2, “Steroide anionic compounds, method of their production, usage and pharmaceutical preparation involving them” (Ustav Organicke Chemie A Biochemie Akademie Ved Ceske …, priority 2009, dated 2013).
